Test results from patent publication US4012284A (Societa' Farmaceutici Italia, S.p.A., priority 1962, dated 1977).

Tested on: Ehrlich adenocarcinoma
Test: Ehrlich adenocarcinoma (solid) in mice (Table VI)
Type: in vivo, mouse
Conditions: for Body weight change, not [net]: controls +2.27; for Body weight change, gross: controls +4.85; for % Inhibition (tumor growth) / Average tumor weight: eighth day; for Average tumor weight: controls 2.583
Description: At least 20 animals per lot were used.
The checking of the activity on solid tumors has been carried out with Ehrlich adenocarcinoma and sarcoma 180 in the mouse and with Walker carcinosarcoma and the Oberling-Guerin-Guerin myeloma in the rat.
Mice grafted with a fragment of tumor subcutaneously for 6 days starting from the day after the transplantation have been treated with a solution of the antibiotic. At the eighth day of experiment all the animals were killed and the tumor was removed and weighed.

COc1cccc2c1C(=O)c1c(O)c3c(c(O)c1C2=O)C[C@@](O)(C(C)=O)C[C@@H]3O[C@H]1C[C@H](N)[C@H](O)[C@H](C)O1 [F.I. 1762]
Body weight change, not [net] (3 mg/kg/day): +1.59 grams
Body weight change, gross (3 mg/kg/day): +3.84 grams
% Inhibition (tumor growth) (3 mg/kg/day): 12%
Average tumor weight (3 mg/kg/day): 2.253 grams
Body weight change, not [net] (6 mg/kg/day): +1.07 grams
Body weight change, gross (6 mg/kg/day): +2.59 grams
% Inhibition (tumor growth) (6 mg/kg/day): 41.1%
Average tumor weight (6 mg/kg/day): 1.522 grams
